According to patent publication US7214703B2, “Pyrrolidinohydrochinazolines” (Boehringer Ingelheim International GmbH, priority 2003, dated 2007):
Counter-ions that a name gives are not always drawn.

How the values were obtained:
[1] = biological target: T1, human chemokine receptor CCR3 (Homo sapiens, UniProt P51677); assay: CCR3 receptor binding assay (SPA, 125I-eotaxin-1, membranes of hCCR3 transfected K562 cells); conditions: CCR3-Receptor Binding Protocol, radioligand 125I-eotaxin-1; read-out: Affinity (Ki-value)
T1 construct: expressed in transfected cells; host or cells: K562 cells (membrane preparation)
T1 sequence (P51677 1-355): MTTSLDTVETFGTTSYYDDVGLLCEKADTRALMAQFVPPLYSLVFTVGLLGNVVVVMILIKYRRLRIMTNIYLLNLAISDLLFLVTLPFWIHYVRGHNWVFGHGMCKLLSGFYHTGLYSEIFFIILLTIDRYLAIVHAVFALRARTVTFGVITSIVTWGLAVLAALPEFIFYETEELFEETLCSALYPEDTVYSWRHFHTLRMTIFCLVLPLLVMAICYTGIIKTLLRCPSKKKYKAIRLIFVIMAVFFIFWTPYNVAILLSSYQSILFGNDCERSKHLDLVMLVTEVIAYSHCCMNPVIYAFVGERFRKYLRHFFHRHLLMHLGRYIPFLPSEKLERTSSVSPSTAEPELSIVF
Source text: Cell lines for expressing the receptor of interest include those naturally expressing the chemokine receptor, such as EOL-3 or THP-1, those induced to express the chemokine receptor by the addition of chemical or protein agents, such as HL-60 or AML14.3D10 cells treated with, for example, butyric acid with interleukin-5 present, or a cell engineered to express a recombinant chemokine receptor, such as CHO or HEK-293. Finally, blood or tissue cells, for example human peripheral blood eosinophils, isolated using methods as described by Hansel et al., J. Immunol. Methods, 145, 105–110 (1991), can be utilized in such assays. In particular, the compound of the present invention have activity in binding to the CCR-3 receptor in the aforementioned assays. […] Such a result is indicative of the intrinsic activity of the compounds as modulators of chemokine receptor activity. A general binding protocol is described below.
CCR3-Receptor Binding Protocol
The CCR3 receptor binding test is based on a K562 cell line (leukemia myelogenic blast cells ) transfected with the human chemokine receptor CCR3 (hCCR3-C1). The cell membranes were prepared by disrupting the hCCR3 transfected K562 cells by nitrogen […] and centrifugation at 40000 g, 4° C. for 1 h. The membranes were re-suspended in the SPA incubation buffer (see below) without bovine serum albumin for storage in aliquots at −80° C.
The CCR3 receptor binding assay with the radioligand ^125Jodine-eotaxin-1 was performed in a Scintillation Proximity Assay (SPA) design. Cell membranes of hCCR3 C1 cells were diluted in suitable concentrations (0.5–5 ug protein/well ) in 96 well microtiter plates (1450–401, Wallac).
The test incubation mixture comprising 60 μl of the membrane suspension, 80 μl of the Wheat Germ Agglutinin coated PVT beads (organic scintillator, Amersham Pharmacia biotech) in a concentration of 0.4 mg and 40 μl of radiolabelled ^125J rhEotaxin (Amersham, IM290) were incubated with 20 μl of the test compound (dissolved in DMSO dilutions ) for 2 hours. The SPA incubation buffer contained 25 mM HEPES, 25 mM MgCl2 6×H2O, 1 mM CaCl2 2×H2O and 0.1% bovine serum albumin. Included were controls for specific binding (no displacer added) and non-specific binding by adding unlabelled rhEotaxin (R&D Systems) or a test compound. Bound radioactivity was determined by scintillation counter (Micro Beta “Trilux”, Wallac). Determination of affinity of test compounds (dissociation constant Ki) was calculated by iterative fitting of experimental data using the law of mass action based program “easy sys” (Schittkowski, Num Math 68, 129–142 (1994)).

Row | Structure (SMILES) | Ki [1] [nM] | melting point [°C]
1 | Fc1ccccc1/C=C1\CCN2Cc3ccccc3N=C12 (as salt: HCl) [Example 106] |  | 285
2 | C(=C1/CCN2Cc3ccccc3N=C12)/c1ccccc1-c1ccccc1 [Example 117] | 1000 to 10000 | 
3 | Clc1cccc(Cl)c1C=C1CCN2Cc3ccccc3N=C12 [Example 105] | 1000 to 10000 | 198 to 199
4 | C(=C1CCN2Cc3ccccc3N=C12)c1ccco1 [Example 115] | 1000 to 10000 | 170
5 | FC(F)(F)c1ccccc1/C=C1\CCN2Cc3ccccc3N=C12 [Example 108] | 1000 to 10000 | 
6 | CCc1ccccc1C=C1CCN2Cc3ccccc3N=C12 (as salt: hydrochloride) [Example 127, 3-(2-Ethylbenzylidene)-1,2,3,9-tetrahydro-pyrrolo[2,1-b]quinazoline] |  | 224 to 225
7 | Cc1oc2nc3n(c(=N)c2c1C)CC/C3=C\c1ccccc1Br [Example 306] | 100 to 1000 | > 290
8 | Brc1cccc2cccc(C=C3CCN4Cc5ccccc5N=C34)c12 [Example 124] | 1000 to 10000 | 252 to 255
9 | N=c1c2ccccc2nc2n1CC/C2=C\c1ccccc1Cl [Example 202] | 1 to 100 | 202 to 203
10 | FC(F)(F)Oc1ccccc1C=C1CCN2Cc3ccccc3N=C12 (as salt: HCl) [Example 122] |  | 225
11 | Fc1ccc(C=C2CCN3Cc4ccccc4N=C23)c(Cl)c1 [Example 118] | 100 to 1000 | 202 to 203
12 | C(=C1/CCN2Cc3ccccc3N=C12)/c1ccsc1 [Example 116] | 1000 to 10000 | 208 to 209
13 | CCc1ccccc1/C=C1\CCn2c1nc1ccccc1c2=N [Example 204] | 100 to 1000 | 
14 | Clc1ccc(/C=C2\CCN3Cc4ccccc4N=C23)cc1Cl [Example 112] | 100 to 1000 | 200
15 | Clc1ccccc1/C=C1\CCN2Cc3cc(Br)cc(Br)c3N=C12 [Example 102] | 1000 to 10000 | 214 to 219
16 | Brc1ccccc1C=C1CCN2Cc3ccccc3N=C12 [Example 101, 3-(2-Bromobenzylidene)-1,2,3,9-tetrahydro-pyrrolo[2,1-b]quinazoline] | 1 to 100 | 
17 | N=c1c2c(C3CC3)csc2nc2n1CC/C2=C\c1ccccc1Br [Example 305] | 100 to 1000 | 209
18 | Clc1ccccc1C=C1CCN2Cc3ccccc3N=C12 [Example 103] | 1 to 100 | 190 to 191
19 | COc1cc2nc3n(c(=N)c2cc1OC)CC/C3=C\c1ccccc1Br [Example 206] | 100 to 1000 | 192 to 194
20 | C(=C1/CCN2Cc3ccccc3N=C12)/c1cccs1 [Example 114] | 1000 to 10000 | 208 to 210
21 | FC(F)(F)c1ccccc1/C=C1\CCN2Cc3ccccc3N=C12 (as salt: HCl) [Example 108] |  | 109 to 110
22 | Cc1sc2nc3n(c(=N)c2c1C)CC/C3=C\c1ccccc1Br [Example 303] | 100 to 1000 | 180
23 | N=c1c2ccccc2nc2n1CC/C2=C\c1ccccc1I [Example 203] | 1 to 100 | 
24 | CCc1ccccc1C=C1CCN2Cc3ccccc3N=C12 [Example 110] | 1000 to 10000 | 

Continued, values first:

Row | Ki [1] [nM] | melting point [°C] | Structure (SMILES)
25 | 1000 to 10000 |  | Fc1ccccc1/C=C1\CCN2Cc3ccccc3N=C12 [Example 106]
26 | 1000 to 10000 | 187 to 188 | Clc1ccc(C=C2CCN3Cc4ccccc4N=C23)c(Cl)c1 [Example 120]
27 | 1000 to 10000 |  | CN(C)c1ccc(/C=C2\CCN3Cc4ccccc4N=C23)c(Cl)c1 [Example 107]
28 |  | 257 | CCc1ccccc1C=C1CCN2Cc3ccccc3N=C12 (as salt: HCl) [Example 110]
29 | 1000 to 10000 | 242 to 248 | Clc1ccccc1C=C1CCCN2Cc3ccccc3N=C12 [Example 126, 6-(2-Chlorobenzylidene)-6,8,9,11-tetrahydro-7H-pyrido[2,1-b]quinazoline]
30 | 1000 to 10000 |  | FC(F)(F)Oc1ccccc1C=C1CCN2Cc3ccccc3N=C12 [Example 122]
31 | 1000 to 10000 | 174 to 175 | COc1ccc(/C=C2\CCN3Cc4ccccc4N=C23)cc1C [Example 119]
32 | 1000 to 10000 | 157 to 158 | CCOc1ccccc1/C=C1\CCN2Cc3ccccc3N=C12 [Example 113]
33 | 1 to 100 | 183 to 184 | N=c1c2ccsc2nc2n1CCC2=Cc1ccccc1Br [Example 301, 7-(2-Bromobenzylidene)-6,7-dihydro-5H-1-thia-4a,8-diazo-s-indacen-4-ylideneamine]
34 |  | 255 to 256 | C(=C1/CCN2Cc3ccccc3N=C12)/c1ccccc1-c1ccccc1 (as salt: HCl) [Example 117]
35 | 1000 to 10000 | 205 | CN(C)c1ccc(/C=C2\CCN3Cc4ccccc4N=C23)cc1 [Example 111]
36 | 100 to 1000 | 232 | N=c1c2cccnc2nc2n1CC/C2=C\c1ccccc1Br [Example 208]
37 | 1000 to 10000 | 175 to 177 | COc1ccc(C=C2CCn3c2nc2ccccc2c3=N)cc1 [Example 205]
38 | 1 to 100 |  | N=c1c2ccccc2nc2n1CCC2=Cc1ccccc1Br [Example 201, 3-(2-Bromobenzylidene)-9-imino-2,3-dihydro-1H-pyrrolo[2,1-b]quinazoline]
39 |  | > 300 | CN(C)c1ccc(/C=C2\CCN3Cc4ccccc4N=C23)c(Cl)c1 (as salt: HCl) [Example 107]
